Laboratory results reported in patent publication US11629123B2, “Selenopsammaplin A and derivative thereof, preparation method therefor, and composition for preventing and treating cancer, containing same as active ingredients” (priority 2017, dated 2023).
“Also recorded” adds a separate entry of the source.

Key:
Format in all cases: cell-based
[1] = tested on: colorectal cancer cell line HCT116; assay: cells; conditions: Homo sapiens, HCT-116, read-out: HCT116-LC50, Table 2; SRB, concentration for 50% viability
Description: (§1) To confirm the in vitro growth inhibitory efficacy of the samples prepared in Examples 1 to 28 against human lung cancer and colorectal cancer cell lines, the experiments were performed as follows by applying the method described in the literature (Lee S K et al ([…]) Chem Biol Interact 115:215-28). A human lung cancer cell line A549 and a colorectal cancer cell line HCT116 were acquired from the American Type Culture Collection (ATCC, Manassas, Va., USA) and used.
(§2) A549, HCT116 cells were subcultured once or twice weekly under conditions of 37° C. and 5% CO2 using Roswell Park Memorial Institute (RPMI) Medium 1640 (RPMI 1640) containing 10% heat-inactivated Fetal Bovine Serum (FBS), 100 units/mL penicillin, 100 μg/mL streptomycin, and 250 ng/mL amphotericin B. All cells were thawed from liquid nitrogen, subcultured three times or more, and then used in the experiment.
(§3) The effects of the compounds obtained in Examples 1 to 28 on cell growth were measured by a sulforhodamine B (SRB) method (Lee et al (1998) Chem Biol Interact 115: 215-28).
(§4) Specifically, the human lung cancer and colon cancer cell lines used in the present invention were subcultured in a RPMI medium containing 10% FBS, 1% PSF, and the like, 10 μl of a sample dissolved in 10% DMSO and 190 μl (5×10^4 cells/ml) of the cell suspension were placed in each well of a 96-well plate. 190 μl of the cell suspension was placed in at least 16 wells, cultured for 30 minutes, and used as a negative control (zero-day control) before the experiment. The cultured cells were fixed with 10% trichloroacetic acid (TCA) and then stained with an SRB solution, the staining solution was dissolved with 10 mM Tris-base, and absorbance was measured at 515 nm. Using the cell culture in 10% DMSO as a control, cell viability according to the treatment with each test sample was measured using the following Equation 1. % Cell viability=(OD(sample)−OD(0-day))/(OD(10% DMSO)−OD(0-day))×100 [Equation 1]
(§5) When the control in which the sample was not treated was defined as 100%, the value of the sample treatment group was shown as a percentage with respect to the control, and each test sample treatment was determined by the mean value±SEM of the duplicate or triplicate test. The IC50 value is the concentration of the test sample for 50% viability.

[2] = tested on: human lung cancer cell line A549; assay: cells; conditions: Homo sapiens, A549, read-out: A549-LC50, Table 2; SRB, concentration for 50% viability
Description: as §1, §2, §3, §4, §5

[3] = tested on: human lung cancer and colorectal cancer cell lines; assay: In vitro growth inhibition (SRB), summary over both cell lines; conditions: compared with control compound etoposide
Description: as §1, §2, §3, §4, §5

| SMILES | CC50 [1] | CC50 [2] | cancer cell growth inhibitory activity compared to etoposide [3] |
| --- | --- | --- | --- |
| O=C(NCC[Se][Se]CCNC(=O)/C(Cc1ccc(O)c(Cl)c1)=N/O)/C(Cc1ccc(O)c(Cl)c1)=N/O [SSM-2, (2E,2′E)-N,N′-(diselanediylbis(ethane-2,1-diyl))bis(3-(3-chloro-4-hydroxyphenyl)-2-(hydroxyimino)propanamide)] | 20 nM | 50 nM | higher inhibitory activity than a control compound etoposide; also recorded: excellent cancer cell growth inhibitory potential even compared to etoposide |
| CCOc1ccc(C/C(=N\O)C(=O)NCC[Se][Se]CCNC(=O)/C(Cc2ccc(OCC)cc2)=N/O)cc1 [SSM-10, (2E,2′E)-N,N′-(diselanediylbis(ethane-2,1-diyl))bis(3-(4-ethoxyphenyl)-2-(hydroxyimino)propanamide)] | 70 nM | 50 nM | higher inhibitory activity than a control compound etoposide; also recorded: excellent cancer cell growth inhibitory potential even compared to etoposide |
| O=C(NCC[Se][Se]CCNC(=O)/C(Cc1ccc(O)c(Br)c1)=N/O)/C(Cc1ccc(O)c(Br)c1)=N/O [SSM-1, (2E,2′E)-N,N′-(diselanediylbis(ethane-2,1-diyl))bis(3-(3-bromo-4-hydroxyphenyl)-2-(hydroxyimino)propanamide)] | 10 nM | 30 nM | higher inhibitory activity than a control compound etoposide; also recorded: excellent cancer cell growth inhibitory potential even compared to etoposide |
